Structures are written as SMILES.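 Five compound concentrations were applied to cells in 96-well plates for 48 hours; endpoints were derived by simple linear interpolation of the resulting dose-response curve. Definition used: TGI = concentration required for complete inhibition of growth.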 A value given as a limit tells only on which side of the number the result lay.

One assay deals with OVCAR-8 ovarian. Briefly: DTP human tumour cell line panel, 48 h.
In turn, `Cc1cccc(Cl)c1NCC(O)CN1CCN(C)CC1` (stereo not given) showed a TGI above 100 µM.
`ONC1=Nc2cc(Cl)ccc2C(=S)N2CSCC12` (stereo not given) returned a total growth inhibition concentration (TGI) above 100 µM.
Still for that read-out and setting: the same measure for `CC(C)NC(=O)OCc1c2c(n(C)c1COC(=O)NC(C)C)-c1cc(Cl)c(Cl)cc1CC2`: above 100 µM; for `CNC1(c2cc3ccccc3s2)CCCCC1`: above 100 µM; for `CNc1ncccc1Nc1cc(=O)n2c3cccnc3n(C)c2c1`: above 100 µM.
Molecule `CC(C)CCNC(=O)c1ccc(CNC(=O)/C=C/c2cccc(Oc3ccccc3)c2)cc1` returned a total growth inhibition concentration (TGI) above 100 µM.
Regarding `COc1ccc2nc(N/N=C/c3sccc3C)cc(C)c2c1`, the TGI is above 100 µM.
With `O=c1[nH]c2cc(C(F)(F)F)ccc2nc1C(F)(F)F`, the TGI was above 100 µM.
The molecule `O=C1/C(=C\c2ccc([N+](=O)[O-])cc2)N(S(=O)(=O)c2ccccc2)c2ncccc21` came in with a TGI of 70.2 µM.
For `C=CCCON(C(=O)OC(C)(C)C)c1ccccc1`, the concentration for total growth inhibition (TGI) was above 100 µM.
Turning to `Nc1cc([N+](=O)[O-])ccc1C(=O)N1CCC[C@H]1CO`, the TGI was above 100 µM.
For the molecule `CCOC(=O)Nc1cc2c(c(N)n1)N=C(c1ccc(OC)cc1)CN2`, the concentration for total growth inhibition (TGI) is above 100 µM.
In the case of `C#CCn1c(=O)c(I)cn(/C(=C/C(=O)OCC)C(=O)OCC)c1=O`, the TGI turned out to be 19.1 µM.
Molecule `C[C@@H](C(=O)O)N1C(c2ccco2)=C(/C(C=O)=C\c2ccco2)C(=O)/C1=C\c1ccco1` gave a TGI above 100 µM.
`O=C(/C=C/c1ccc(O)c(O)c1)OCC(OC(=O)/C=C/c1ccc(O)c(O)c1)C(=O)O` (stereo not given): the TGI is above 100 µM.
`COc1ccc(CC2COc3cc(OC)cc(OC)c3C2=O)cc1` (stereo not given) had a TGI of 83.3 µM.
Same read-out and setting: the same measure for `COc1ccc(-c2c(C(C)=O)c(-c3ccccc3)n(C3OC(CO)C(O)C(O)C3O)c(=S)c2C#N)cc1` (stereo not given): above 100 µM; for `O=C1C2=Cc3ccccc3OC2(O)Oc2cc3ccccc3cc21` (stereo not given): above 100 µM.

The next assay relates to SF-268 CNS. Briefly: DTP human tumour cell line panel, 48 h.
Molecule `Clc1ccc(CCN(CCc2ccc(Cl)c(Cl)c2)CCN2CCCC2)cc1Cl` returned a TGI of 3.73 µM.
`CC(C)(C)C1=C(Br)C(C(C)(C)C)OP1(=O)O` (stereo not given) gave a concentration for total growth inhibition (TGI) above 100 µM.
The same measure, in the same setting: the same measure for `Cc1cccc(Cl)c1NCC(O)CN1CCN(C)CC1` (stereo not given): above 100 µM.
`ONC1=Nc2cc(Cl)ccc2C(=S)N2CSCC12` (stereo not given) had a TGI above 100 µM.
In turn, `CC(C)NC(=O)OCc1c2c(n(C)c1COC(=O)NC(C)C)-c1cc(Cl)c(Cl)cc1CC2` came in with a TGI above 100 µM.
Turning to `CNC1(c2cc3ccccc3s2)CCCCC1`, the TGI amounted to 42.8 µM.
Still for that read-out and setting: next, `CNc1ncccc1Nc1cc(=O)n2c3cccnc3n(C)c2c1`: above 100 µM; `CC(C)CCNC(=O)c1ccc(CNC(=O)/C=C/c2cccc(Oc3ccccc3)c2)cc1`: above 100 µM; `COc1ccc2nc(N/N=C/c3sccc3C)cc(C)c2c1`: 47.8 µM.
In turn, `O=c1[nH]c2cc(C(F)(F)F)ccc2nc1C(F)(F)F` showed a TGI above 100 µM.
Still for that read-out and setting: next, `O=C1/C(=C\c2ccc([N+](=O)[O-])cc2)N(S(=O)(=O)c2ccccc2)c2ncccc21`: 70.7 µM; `C=CCCON(C(=O)OC(C)(C)C)c1ccccc1`: above 100 µM.
For the molecule `Nc1cc([N+](=O)[O-])ccc1C(=O)N1CCC[C@H]1CO`, the TGI is above 100 µM.
The molecule `CCOC(=O)Nc1cc2c(c(N)n1)N=C(c1ccc(OC)cc1)CN2` gave a concentration for total growth inhibition (TGI) above 100 µM.
`C#CCn1c(=O)c(I)cn(/C(=C/C(=O)OCC)C(=O)OCC)c1=O` displayed a TGI of 35.1 µM.
As to `C[C@@H](C(=O)O)N1C(c2ccco2)=C(/C(C=O)=C\c2ccco2)C(=O)/C1=C\c1ccco1`, the TGI is above 100 µM.
`O=C(/C=C/c1ccc(O)c(O)c1)OCC(OC(=O)/C=C/c1ccc(O)c(O)c1)C(=O)O` (stereo not given) registered a TGI above 100 µM.
`COc1ccc(CC2COc3cc(OC)cc(OC)c3C2=O)cc1` (stereo not given) yielded a TGI above 100 µM.
Consider `COc1ccc(-c2c(C(C)=O)c(-c3ccccc3)n(C3OC(CO)C(O)C(O)C3O)c(=S)c2C#N)cc1` (stereo not given), for which the TGI is above 100 µM.
For `O=C1C2=Cc3ccccc3OC2(O)Oc2cc3ccccc3cc21` (stereo not given), the TGI was above 100 µM.

The next assay deals with SK-MEL-5 melanoma. Briefly: DTP human tumour cell line panel, 48 h.
As to `Clc1ccc(CCN(CCc2ccc(Cl)c(Cl)c2)CCN2CCCC2)cc1Cl`, the total growth inhibition concentration (TGI) was 3.2 µM.
The molecule `CC(C)(C)C1=C(Br)C(C(C)(C)C)OP1(=O)O` (stereo not given) gave a TGI above 100 µM.
In the case of `Cc1cccc(Cl)c1NCC(O)CN1CCN(C)CC1` (stereo not given), the TGI was above 100 µM.
Same read-out and setting: the same measure for `ONC1=Nc2cc(Cl)ccc2C(=S)N2CSCC12` (stereo not given): above 100 µM; for `CC(C)NC(=O)OCc1c2c(n(C)c1COC(=O)NC(C)C)-c1cc(Cl)c(Cl)cc1CC2`: above 100 µM.
Regarding `CNC1(c2cc3ccccc3s2)CCCCC1`, the TGI turned out to be 36 µM.
Same read-out and setting: next, `CNc1ncccc1Nc1cc(=O)n2c3cccnc3n(C)c2c1`: above 100 µM.
As for `CC(C)CCNC(=O)c1ccc(CNC(=O)/C=C/c2cccc(Oc3ccccc3)c2)cc1`, the TGI is above 100 µM.
In turn, `COc1ccc2nc(N/N=C/c3sccc3C)cc(C)c2c1` had a TGI of 25.5 µM.
The molecule `O=c1[nH]c2cc(C(F)(F)F)ccc2nc1C(F)(F)F` yielded a TGI of 35.7 µM.
`O=C1/C(=C\c2ccc([N+](=O)[O-])cc2)N(S(=O)(=O)c2ccccc2)c2ncccc21`: the concentration for total growth inhibition (TGI) turned out to be 31.4 µM.
For the molecule `C=CCCON(C(=O)OC(C)(C)C)c1ccccc1`, the TGI was above 100 µM.
In the case of `CCOC(=O)Nc1cc2c(c(N)n1)N=C(c1ccc(OC)cc1)CN2`, the TGI is 0.141 µM.
Same read-out and setting: next, `C[C@@H](C(=O)O)N1C(c2ccco2)=C(/C(C=O)=C\c2ccco2)C(=O)/C1=C\c1ccco1`: above 100 µM.
Molecule `O=C(/C=C/c1ccc(O)c(O)c1)OCC(OC(=O)/C=C/c1ccc(O)c(O)c1)C(=O)O` (stereo not given) had a TGI above 100 µM.
As to `COc1ccc(CC2COc3cc(OC)cc(OC)c3C2=O)cc1` (stereo not given), the TGI was determined as 68 µM.
Turning to `COc1ccc(-c2c(C(C)=O)c(-c3ccccc3)n(C3OC(CO)C(O)C(O)C3O)c(=S)c2C#N)cc1` (stereo not given), the TGI is above 100 µM.
As to `O=C1C2=Cc3ccccc3OC2(O)Oc2cc3ccccc3cc21` (stereo not given), the TGI was above 100 µM.

The next assay has as its system SN12C renal. Briefly: DTP human tumour cell line panel, 48 h.
Regarding `CC(C)(C)C1=C(Br)C(C(C)(C)C)OP1(=O)O` (stereo not given), the TGI is above 100 µM.
`Cc1cccc(Cl)c1NCC(O)CN1CCN(C)CC1` (stereo not given): the TGI is above 100 µM.
For the molecule `ONC1=Nc2cc(Cl)ccc2C(=S)N2CSCC12` (stereo not given), the TGI is above 100 µM.
In turn, `CC(C)NC(=O)OCc1c2c(n(C)c1COC(=O)NC(C)C)-c1cc(Cl)c(Cl)cc1CC2` had a concentration for total growth inhibition (TGI) above 100 µM.
Consider `CNC1(c2cc3ccccc3s2)CCCCC1`, for which the TGI was above 100 µM.
For `CC(C)CCNC(=O)c1ccc(CNC(=O)/C=C/c2cccc(Oc3ccccc3)c2)cc1`, the concentration for total growth inhibition (TGI) is above 100 µM.
Consider `COc1ccc2nc(N/N=C/c3sccc3C)cc(C)c2c1`, for which the TGI was determined as 48.2 µM.
On to `O=c1[nH]c2cc(C(F)(F)F)ccc2nc1C(F)(F)F`, for which the TGI was above 100 µM.
`O=C1/C(=C\c2ccc([N+](=O)[O-])cc2)N(S(=O)(=O)c2ccccc2)c2ncccc21`: the TGI stood at 50.2 µM.
For `C=CCCON(C(=O)OC(C)(C)C)c1ccccc1`, the TGI was above 100 µM.
`Nc1cc([N+](=O)[O-])ccc1C(=O)N1CCC[C@H]1CO` showed a TGI above 100 µM.
In the case of `CCOC(=O)Nc1cc2c(c(N)n1)N=C(c1ccc(OC)cc1)CN2`, the TGI came to 54.5 µM.
Same read-out and setting: the same measure for `C#CCn1c(=O)c(I)cn(/C(=C/C(=O)OCC)C(=O)OCC)c1=O`: 32.3 µM; for `C[C@@H](C(=O)O)N1C(c2ccco2)=C(/C(C=O)=C\c2ccco2)C(=O)/C1=C\c1ccco1`: above 100 µM.
